Test results taken from patent publication US5679695A, “Aryl and heteroaryl compounds having anti-retrovirus activity” (The University of Connecticut, priority 1995, dated 1997).

What was measured:
LP-BM5 MuLV = LP-BM5 MuLV UV-XC plaque assay; format: cell-based, Murine Leukemia Virus; details: for inhibition at 100 µM / inhibition at 10 µM / inhibition at 1 µM / inhibition at 0.1 µM / inhibition at 0.01 µM: Murine leukemia virus, SC-1, read-out: % Plaque Reduction
Description: One such method is used to determine the effectiveness of representative compounds and compositions of the present invention in the Rauscher and LP-BMS Murine Leukemia Virus (MLV) In Vitro Assays.
SC-1 cells were grown as monolayers in 6-well tissue culture plates (Falcon). The a test compound was added to the cultures at the time of virus inoculation (approximately 24 hours after the cells were seeded) and was present for 3 days, at which time the cultures were irradiated with UV light. All compounds were solubilized in DMSO prior to dilution in grown medium. The highest concentration of DMSO present in the cultures was 0.05%. The test cultures (triplicate cultures per drug concentrate) each contained 2 ml of test compound diluted in growth medium (Eagle's minimum) essential medium (EMEM) supplemented with 5% heat-inactivated fetal bovine serum (FBS) and 0.5 ml of the virus suspension diluted to produce a countable number of plaques per well. The six virus control cultures contained 2 ml of medium and 0.5 ml of the virus suspension. NSC606170(ddC) was included as a positive control. drug. Drug cytotoxicity control cultures (containing test compound) but no virus and cell control culture (containing no test compound) or virus were included in the assay. On day 3 post-virus inoculation, the cultures were irradiated and XC cells were added. Three days after V-irradiation, the cultures were fixed with formalin and stained with 0.1% crystal violet. The plaques were counted with the aid of a dissection microscope.
(§1) Using the procedure, the following data is generated from representative compounds of the presnet invention.

[1] = Dye conversion (MTT formazan) assay of drug-induced cytotoxicity; format: cell-based; details: mouse, sc-1 cells; for cytotoxicity at 72 h, 1000 µM / viability at 72 h, 1000 µM: 1 × 10^-3 M; for cytotoxicity at 72 h, 1000 µM / cytotoxicity at 72 h, 100 µM / cytotoxicity at 72 h, 10 µM / cytotoxicity at 72 h, 1 µM / cytotoxicity at 72 h, 0.1 µM / cytotoxicity at 72 h, 0.01 µM: read-out: % Reduction; for viability at 72 h, 1000 µM / viability at 72 h, 100 µM / viability at 72 h, 10 µM / viability at 72 h, 1 µM / viability at 72 h, 0.1 µM / viability at 72 h, 0.01 µM: read-out: % of Control; for cytotoxicity at 72 h, 100 µM / viability at 72 h, 100 µM: 1 × 10^-4 M; for cytotoxicity at 72 h, 10 µM / viability at 72 h, 10 µM: 1 × 10^-5 M; for cytotoxicity at 72 h, 1 µM / viability at 72 h, 1 µM: 1 × 10^-6 M; for cytotoxicity at 72 h, 0.1 µM / viability at 72 h, 0.1 µM: 1 × 10^-7 M; for cytotoxicity at 72 h, 0.01 µM / viability at 72 h, 0.01 µM: 1 × 10^-8 M
Description: (§2) A dye conversion assay to determine drug-induced cytotoxicity was performed. This assay is based on the conversion of MTT to a formazan product in living cells. This conversion results in a color change which can be detected spectrophotometrically. A 96-well tissue culture plate was seeded with […] per well at the time that the 6-well plates were seeded for the UV-XC plaque assay. The following day, the medium was decanted and the cell control cultures received 100 ul of medium. The drug controls received 80 ul of drug and 20 ul of medium such that the final concentration of drug was equivalent to that used in the 6-well plates. On day 3 after addition of the drug, 50 ul of a 2 mg/ml solution of MTT in EMEM with 5% heat-inactivated FBS were added each well. The culture was incubated for 7 hours and 100 ul of a 10% SDS: 0.01 N HCL solution was added to each well. The culture was incubated overnight and the following morning the optical density (O.D.) was read at 570 nm wavelength on a Perkin-Elmer spectrophotometer. The percent reduction in the drug-treated cell. O.D. reading compared to the control cell O.D. reading was calculated.
as §1

SC-1 cells = assay: as above; format: cell-based; details: 570 nm
Description: as §2, §1

HIV = assay: Anti-HIV activity in MT-2; format: cell-based; details: Human immunodeficiency virus 1; MT-2, summary table; read-out: MT-2 EC50
Source text: Obviously, there is a structure activity relationship with respect to the efficacy of the compounds of the present invention. Factors that affect the relationship may include steric effects, electronic effects, (electron withdrawing or electron donating ability), resonance effects, hydrophobic,hydrophilic, hydrogen bonding parameters, etc. […] Based on the data, it has been determined that there is a direct correlation between the log (EC50)^-1 and the electronic effect of a substituent (a) or more precisely the sum of the sigma (σ) values. (The greater the electron withdrawing ability of a substituent, the higher the value of σ, while a better electron donating group has a lower value of σ.) There appears to be a direct correlation between log (EC50)^-1 and the Σσ; as the Σσ increases, so does the log (EC50)^-1. The addition of substituents to the diphenyl sulfone will affect the factors discussed hereinabove, thus both the log (EC50)^-1 and the Σσ will be affected. Thus for the diphenyl sulfone derivative [drawing 25] the relation is […]

For `O=[N+]([O-])c1ccccc1S(=O)(=O)c1ccccc1` [Compound 1, 1-Nitro-2-(phenylsulfonyl)benzene], the Mean plaque count (LP-BM5 MuLV; 1 × 10^-4 M) was 254, the “Plaque count, replicate #1” value (LP-BM5 MuLV; 1 × 10^-4 M) was 219 and the “Plaque count, replicate #2” value (LP-BM5 MuLV; 1 × 10^-4 M) was 216. For the same molecule, the “Plaque count, replicate #3” value (LP-BM5 MuLV; 1 × 10^-4 M) was 328, the Mean plaque count (LP-BM5 MuLV; 1 × 10^-5 M) was 261 and the “Plaque count, replicate #1” value (LP-BM5 MuLV; 1 × 10^-5 M) was 335. The “Plaque count, replicate #2” value (LP-BM5 MuLV; 1 × 10^-5 M) was 216, the “Plaque count, replicate #3” value (LP-BM5 MuLV; 1 × 10^-5 M) was 232 and the Mean plaque count (LP-BM5 MuLV; 1 × 10^-6 M) was 255. The “Plaque count, replicate #1” value (LP-BM5 MuLV; 1 × 10^-6 M) was 337, the “Plaque count, replicate #2” value (LP-BM5 MuLV; 1 × 10^-6 M) was 218 and the “Plaque count, replicate #3” value (LP-BM5 MuLV; 1 × 10^-6 M) was 210. The Mean plaque count (LP-BM5 MuLV; 1 × 10^-7 M) was 207, the “Plaque count, replicate #1” value (LP-BM5 MuLV; 1 × 10^-7 M) was 201 and the “Plaque count, replicate #2” value (LP-BM5 MuLV; 1 × 10^-7 M) was 192. For the same molecule, the “Plaque count, replicate #3” value (LP-BM5 MuLV; 1 × 10^-7 M) was 228, the Mean plaque count (LP-BM5 MuLV; 1 × 10^-8 M) was 246 and the “Plaque count, replicate #1” value (LP-BM5 MuLV; 1 × 10^-8 M) was 222. For the same molecule, the “Plaque count, replicate #2” value (LP-BM5 MuLV; 1 × 10^-8 M) was 204, the “Plaque count, replicate #3” value (LP-BM5 MuLV; 1 × 10^-8 M) was 311 and the inhibition at 100 µM (LP-BM5 MuLV; 1 × 10^-4 M) was 11%. The inhibition at 10 µM (LP-BM5 MuLV; 1 × 10^-5 M) was 9%, the inhibition at 1 µM (LP-BM5 MuLV; 1 × 10^-6 M) was 11% and the inhibition at 0.1 µM (LP-BM5 MuLV; 1 × 10^-7 M) was 27%. The inhibition at 0.01 µM (LP-BM5 MuLV; 1 × 10^-8 M) was 14%, the cytotoxicity at 72 h, 1000 µM [1] was 45% and the viability at 72 h, 1000 µM [1] was 55%. It also gave a cytotoxicity at 72 h, 100 µM [1] of 15%, a viability at 72 h, 100 µM [1] of 85% and a cytotoxicity at 72 h, 10 µM [1] of 3%. For the same molecule, the viability at 72 h, 10 µM [1] was 97%, the cytotoxicity at 72 h, 1 µM [1] was 2% and the viability at 72 h, 1 µM [1] was 98%. It also gave a cytotoxicity at 72 h, 0.1 µM [1] of 0%, a viability at 72 h, 0.1 µM [1] of 101% and a cytotoxicity at 72 h, 0.01 µM [1] of 1%. The viability at 72 h, 0.01 µM [1] was 99%, the “O.D. Reading” value (SC-1 cells; 1 × 10^-3 M) was 0.851 and the “O.D. Reading” value (SC-1 cells; 1 × 10^-4 M) was 1.320. The “O.D. Reading” value (SC-1 cells; 1 × 10^-5 M) was 1.504, the “O.D. Reading” value (SC-1 cells; 1 × 10^-6 M) was 1.522 and the “O.D. Reading” value (SC-1 cells; 1 × 10^-7 M) was 1.566. For the same molecule, the “O.D. Reading” value (SC-1 cells; 1 × 10^-8 M) was 1.530 and the EC50 (HIV) was 1.16 µM.
For `Cc1ccc(S(=O)(=O)c2ccccc2[N+](=O)[O-])cc1` [Compound 2, 1-(4-Methylphenylsulfonyl)-2-nitrobenzene], the Mean plaque count (LP-BM5 MuLV; 1 × 10^-3 M) was 130, the “Plaque count, replicate #1” value (LP-BM5 MuLV; 1 × 10^-3 M) was 162 and the “Plaque count, replicate #2” value (LP-BM5 MuLV; 1 × 10^-3 M) was 123. The “Plaque count, replicate #3” value (LP-BM5 MuLV; 1 × 10^-3 M) was 104, the Mean plaque count (LP-BM5 MuLV; 1 × 10^-4 M) was 50 and the “Plaque count, replicate #1” value (LP-BM5 MuLV; 1 × 10^-4 M) was 43. For the same molecule, the “Plaque count, replicate #2” value (LP-BM5 MuLV; 1 × 10^-4 M) was 37, the “Plaque count, replicate #3” value (LP-BM5 MuLV; 1 × 10^-4 M) was 70 and the Mean plaque count (LP-BM5 MuLV; 1 × 10^-5 M) was 245. The “Plaque count, replicate #1” value (LP-BM5 MuLV; 1 × 10^-5 M) was 265, the “Plaque count, replicate #2” value (LP-BM5 MuLV; 1 × 10^-5 M) was 204 and the “Plaque count, replicate #3” value (LP-BM5 MuLV; 1 × 10^-5 M) was 267. The Mean plaque count (LP-BM5 MuLV; 1 × 10^-6 M) was 264, the “Plaque count, replicate #1” value (LP-BM5 MuLV; 1 × 10^-6 M) was 270 and the “Plaque count, replicate #2” value (LP-BM5 MuLV; 1 × 10^-6 M) was 217. For the same molecule, the “Plaque count, replicate #3” value (LP-BM5 MuLV; 1 × 10^-6 M) was 304, the Mean plaque count (LP-BM5 MuLV; 1 × 10^-7 M) was 299 and the “Plaque count, replicate #1” value (LP-BM5 MuLV; 1 × 10^-7 M) was 327. For the same molecule, the “Plaque count, replicate #2” value (LP-BM5 MuLV; 1 × 10^-7 M) was 269, the “Plaque count, replicate #3” value (LP-BM5 MuLV; 1 × 10^-7 M) was 301 and the Mean plaque count (LP-BM5 MuLV; 1 × 10^-8 M) was 318. For the same molecule, the “Plaque count, replicate #1” value (LP-BM5 MuLV; 1 × 10^-8 M) was 299, the “Plaque count, replicate #2” value (LP-BM5 MuLV; 1 × 10^-8 M) was 340 and the “Plaque count, replicate #3” value (LP-BM5 MuLV; 1 × 10^-8 M) was 314. The inhibition at 100 µM (LP-BM5 MuLV; 1 × 10^-4 M) was 82%, the inhibition at 10 µM (LP-BM5 MuLV; 1 × 10^-5 M) was 14% and the inhibition at 1 µM (LP-BM5 MuLV; 1 × 10^-6 M) was 8%. The inhibition at 0.1 µM (LP-BM5 MuLV; 1 × 10^-7 M) was 0%, the inhibition at 0.01 µM (LP-BM5 MuLV; 1 × 10^-8 M) was 0% and the cytotoxicity at 72 h, 1000 µM [1] was 31%. For the same molecule, the viability at 72 h, 1000 µM [1] was 69%, the cytotoxicity at 72 h, 100 µM [1] was 13% and the viability at 72 h, 100 µM [1] was 87%. The cytotoxicity at 72 h, 10 µM [1] was 8%, the viability at 72 h, 10 µM [1] was 92% and the cytotoxicity at 72 h, 1 µM [1] was 8%. For the same molecule, the viability at 72 h, 1 µM [1] was 92%, the cytotoxicity at 72 h, 0.1 µM [1] was 8% and the viability at 72 h, 0.1 µM [1] was 92%. For the same molecule, the cytotoxicity at 72 h, 0.01 µM [1] was 9%, the viability at 72 h, 0.01 µM [1] was 91% and the “O.D. Reading” value (SC-1 cells; 1 × 10^-3 M) was 1.066. For the same molecule, the “O.D. Reading” value (SC-1 cells; 1 × 10^-4 M) was 1.345, the “O.D. Reading” value (SC-1 cells; 1 × 10^-5 M) was 1.425 and the “O.D. Reading” value (SC-1 cells; 1 × 10^-6 M) was 1.418. The “O.D. Reading” value (SC-1 cells; 1 × 10^-7 M) was 1.429, the “O.D. Reading” value (SC-1 cells; 1 × 10^-8 M) was 1.411 and the EC50 (HIV) was 3.26 µM.
